# Key:
# EGFR(L861Q) = EGFR(L861Q) (Homo sapiens, UniProt P00533, L861Q); assay: KINOMEscan: EGFR(L861Q); type: binding; settings: 1000 nM, read-out: Percent Control
# Tachykinin NK1 = Tachykinin NK1 (Homo sapiens, UniProt P25103); assay: Eurofins Diversity Panel; type: binding; settings: hum, Conc. 10 μM
# AKT1 = AKT1 (Homo sapiens, UniProt P31749); assay: KINOMEscan: AKT1; type: binding; settings: 1000 nM, read-out: Percent Control
# GRK3 = GRK3 (Homo sapiens, UniProt P35626); assay: KINOMEscan: GRK3; type: binding; settings: 1000 nM, read-out: Percent Control
# CDKL2 = CDKL2 (Homo sapiens, UniProt Q92772); assay: KINOMEscan: CDKL2; type: binding; settings: 1000 nM, read-out: Percent Control
# EPHB6 = EPHB6 (Homo sapiens, UniProt O15197); assay: KINOMEscan: EPHB6; type: binding; settings: 1000 nM, read-out: Percent Control
# TYRO3 = TYRO3 (Homo sapiens, UniProt Q06418); assay: KINOMEscan: TYRO3; type: binding; settings: 100 nM, read-out: Percent Control
# Chain of TYRO3 (Q06418 41-890): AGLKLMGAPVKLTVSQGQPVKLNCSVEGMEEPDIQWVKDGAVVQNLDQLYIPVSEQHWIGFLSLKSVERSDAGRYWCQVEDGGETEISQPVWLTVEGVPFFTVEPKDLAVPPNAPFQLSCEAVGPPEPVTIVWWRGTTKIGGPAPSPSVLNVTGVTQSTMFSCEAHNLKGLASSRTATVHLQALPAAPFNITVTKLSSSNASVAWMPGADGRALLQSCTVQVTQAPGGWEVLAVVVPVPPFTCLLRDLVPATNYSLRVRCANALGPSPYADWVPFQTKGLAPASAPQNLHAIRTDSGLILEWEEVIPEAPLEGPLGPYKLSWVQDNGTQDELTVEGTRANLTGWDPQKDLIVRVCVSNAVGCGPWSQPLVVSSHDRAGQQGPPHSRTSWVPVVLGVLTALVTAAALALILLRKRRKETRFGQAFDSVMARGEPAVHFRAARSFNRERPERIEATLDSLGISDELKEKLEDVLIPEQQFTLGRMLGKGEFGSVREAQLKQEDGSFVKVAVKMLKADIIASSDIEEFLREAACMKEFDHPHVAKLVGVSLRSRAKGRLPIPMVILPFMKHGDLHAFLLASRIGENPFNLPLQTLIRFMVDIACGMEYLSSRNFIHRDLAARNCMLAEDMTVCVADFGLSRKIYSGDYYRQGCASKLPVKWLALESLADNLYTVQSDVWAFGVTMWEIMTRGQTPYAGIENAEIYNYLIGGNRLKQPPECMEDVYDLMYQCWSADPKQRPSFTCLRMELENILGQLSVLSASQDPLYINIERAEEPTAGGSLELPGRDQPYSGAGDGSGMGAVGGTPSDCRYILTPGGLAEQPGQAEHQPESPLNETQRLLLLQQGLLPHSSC
# CSNK1G3 = CSNK1G3 (Homo sapiens, UniProt Q9Y6M4); assay: KINOMEscan: CSNK1G3; type: binding; settings: 1000 nM, read-out: Percent Control
# TRKB = TRKB (Homo sapiens, UniProt Q16620); assay: KINOMEscan: TRKB; type: binding; settings: 100 nM, read-out: Percent Control
# Chain of TRKB (Q16620 32-822): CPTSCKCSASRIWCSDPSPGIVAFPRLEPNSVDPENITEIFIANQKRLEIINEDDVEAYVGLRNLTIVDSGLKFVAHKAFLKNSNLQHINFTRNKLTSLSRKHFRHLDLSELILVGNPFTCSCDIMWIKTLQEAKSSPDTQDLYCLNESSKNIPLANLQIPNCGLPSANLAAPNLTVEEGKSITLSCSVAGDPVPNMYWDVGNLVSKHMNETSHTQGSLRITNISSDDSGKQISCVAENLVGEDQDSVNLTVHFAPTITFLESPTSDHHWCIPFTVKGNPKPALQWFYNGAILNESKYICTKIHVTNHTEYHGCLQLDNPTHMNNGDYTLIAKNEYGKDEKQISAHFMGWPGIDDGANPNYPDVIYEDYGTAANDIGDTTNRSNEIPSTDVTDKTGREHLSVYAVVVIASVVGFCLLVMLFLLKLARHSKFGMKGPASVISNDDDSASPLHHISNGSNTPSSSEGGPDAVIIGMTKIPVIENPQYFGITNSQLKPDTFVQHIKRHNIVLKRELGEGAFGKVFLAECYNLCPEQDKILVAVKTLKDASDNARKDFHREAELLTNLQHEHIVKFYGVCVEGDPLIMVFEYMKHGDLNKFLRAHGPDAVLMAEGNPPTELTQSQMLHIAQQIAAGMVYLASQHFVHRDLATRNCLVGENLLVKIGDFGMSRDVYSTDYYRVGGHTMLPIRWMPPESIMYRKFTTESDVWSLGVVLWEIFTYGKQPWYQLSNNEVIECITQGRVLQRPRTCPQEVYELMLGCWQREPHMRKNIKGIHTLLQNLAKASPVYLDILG
# Neuropeptide Y Y1 = Neuropeptide Y Y1 (Homo sapiens, UniProt P25929); assay: Eurofins Diversity Panel; type: binding; settings: hum, Conc. 10 μM
# FLT3(ITD,F691L) = assay: KINOMEscan: FLT3(ITD,F691L); type: binding, human; settings: 1000 nM
# TRPM6 = TRPM6 (Homo sapiens, UniProt Q9BX84); assay: KINOMEscan: TRPM6; type: binding; settings: 100 nM, read-out: Percent Control
# ROS1 = ROS1 (Homo sapiens, UniProt P08922); assay: KINOMEscan: ROS1; type: binding; settings: 100 nM, read-out: Percent Control
# DRAK1 = DRAK1 (Homo sapiens, UniProt Q9UEE5); assay: KINOMEscan: DRAK1; type: binding; settings: 1000 nM, read-out: Percent Control
# GAK = GAK (Homo sapiens, UniProt O14976); assay: KINOMEscan: GAK; type: binding; settings: 1000 nM, read-out: Percent Control
# GSK3α = GSK3α (Homo sapiens, UniProt P49840); assay: NanoBRET target engagement assay (HEK293); type: cell-based
# Chain of GSK3α (P49840 whole entry): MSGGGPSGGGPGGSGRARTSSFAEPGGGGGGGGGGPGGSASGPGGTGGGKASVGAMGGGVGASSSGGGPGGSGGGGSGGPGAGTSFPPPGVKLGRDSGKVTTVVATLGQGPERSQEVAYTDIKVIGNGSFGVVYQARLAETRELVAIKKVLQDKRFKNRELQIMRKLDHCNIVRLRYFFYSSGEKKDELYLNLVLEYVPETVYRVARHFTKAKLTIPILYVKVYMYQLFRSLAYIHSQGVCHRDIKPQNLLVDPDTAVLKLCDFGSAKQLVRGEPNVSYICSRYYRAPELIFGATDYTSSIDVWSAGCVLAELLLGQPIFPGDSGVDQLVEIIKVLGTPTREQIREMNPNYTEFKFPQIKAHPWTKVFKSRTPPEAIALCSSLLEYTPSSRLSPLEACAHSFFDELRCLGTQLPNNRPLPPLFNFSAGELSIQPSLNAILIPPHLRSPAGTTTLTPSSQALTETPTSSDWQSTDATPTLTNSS
# [1] = molecular target: RSK4(Kin.Dom.2-C-terminal) (Homo sapiens, UniProt Q9UK32); assay: KINOMEscan: RSK4(Kin.Dom.2-C-terminal); type: binding; settings: 100 nM, read-out: Percent Control
# IGF1R = IGF1R (Homo sapiens, UniProt P08069); assay: KINOMEscan: IGF1R; type: binding; settings: 1000 nM, read-out: Percent Control
# LYN = LYN (Homo sapiens, UniProt P07948); assay: KINOMEscan: LYN; type: binding; settings: 1000 nM, read-out: Percent Control
# MEK4 = MEK4 (Homo sapiens, UniProt P45985); assay: KINOMEscan: MEK4; type: binding; settings: 1000 nM, read-out: Percent Control
# Chain of MEK4 (P45985 whole entry): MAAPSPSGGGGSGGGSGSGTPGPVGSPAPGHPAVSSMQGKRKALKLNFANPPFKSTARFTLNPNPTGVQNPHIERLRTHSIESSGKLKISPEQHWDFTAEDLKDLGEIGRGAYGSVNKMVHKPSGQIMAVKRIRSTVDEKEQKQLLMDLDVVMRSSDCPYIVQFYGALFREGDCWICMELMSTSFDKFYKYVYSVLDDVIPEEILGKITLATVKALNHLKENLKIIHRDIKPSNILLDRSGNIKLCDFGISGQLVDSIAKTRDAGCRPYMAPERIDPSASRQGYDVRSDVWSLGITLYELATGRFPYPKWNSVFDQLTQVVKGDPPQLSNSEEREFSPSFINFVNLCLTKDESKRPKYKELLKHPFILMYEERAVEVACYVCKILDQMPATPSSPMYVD
# DYRK1B = DYRK1B (Homo sapiens, UniProt Q9Y463); assay: KINOMEscan: DYRK1B; type: binding; settings: 1000 nM, read-out: Percent Control
# MET(M1250T) = MET(M1250T) (Homo sapiens, UniProt P08581, M1250T); assay: KINOMEscan: MET(M1250T); type: binding; settings: 1000 nM, read-out: Percent Control
# Prostanoid EP4 = Prostanoid EP4 (Homo sapiens, UniProt P35408); assay: Eurofins Diversity Panel; type: binding; settings: hum, Conc. 10 μM
# Chain of Prostanoid EP4 (P35408 whole entry): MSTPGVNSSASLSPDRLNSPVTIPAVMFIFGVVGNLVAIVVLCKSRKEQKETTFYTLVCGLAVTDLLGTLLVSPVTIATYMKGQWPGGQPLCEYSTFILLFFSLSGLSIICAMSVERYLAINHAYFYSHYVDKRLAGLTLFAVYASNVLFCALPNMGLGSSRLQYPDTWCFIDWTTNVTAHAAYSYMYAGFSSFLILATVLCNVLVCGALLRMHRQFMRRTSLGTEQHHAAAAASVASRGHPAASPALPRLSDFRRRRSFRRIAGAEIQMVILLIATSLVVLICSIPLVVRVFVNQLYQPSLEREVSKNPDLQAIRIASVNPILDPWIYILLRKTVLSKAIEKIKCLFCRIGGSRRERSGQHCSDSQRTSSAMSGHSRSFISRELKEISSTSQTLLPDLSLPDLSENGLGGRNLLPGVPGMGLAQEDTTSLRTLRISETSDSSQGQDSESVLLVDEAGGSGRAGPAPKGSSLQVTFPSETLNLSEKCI
# [2] = test system: primary CLL samples with human stromal cell line (HS-5) co-culture; assay: Annexin V/PI flow cytometry, four-hour treatment with washout, HS-5 stromal co-culture; type: cell-based; settings: relapse/refractory samples; four-hour exposure, after 24 h
# [3] = molecular target: Transporter, Serotonin (5-Hydroxytryptamine) (SERT) (Homo sapiens, UniProt P31645); assay: Eurofins Diversity Panel; type: binding; settings: hum, Conc. 10 μM
# Neuropeptide Y Y2 = Neuropeptide Y Y2 (Homo sapiens, UniProt P49146); assay: Eurofins Diversity Panel; type: binding; settings: hum, Conc. 10 μM
# Chain of Neuropeptide Y Y2 (P49146 whole entry): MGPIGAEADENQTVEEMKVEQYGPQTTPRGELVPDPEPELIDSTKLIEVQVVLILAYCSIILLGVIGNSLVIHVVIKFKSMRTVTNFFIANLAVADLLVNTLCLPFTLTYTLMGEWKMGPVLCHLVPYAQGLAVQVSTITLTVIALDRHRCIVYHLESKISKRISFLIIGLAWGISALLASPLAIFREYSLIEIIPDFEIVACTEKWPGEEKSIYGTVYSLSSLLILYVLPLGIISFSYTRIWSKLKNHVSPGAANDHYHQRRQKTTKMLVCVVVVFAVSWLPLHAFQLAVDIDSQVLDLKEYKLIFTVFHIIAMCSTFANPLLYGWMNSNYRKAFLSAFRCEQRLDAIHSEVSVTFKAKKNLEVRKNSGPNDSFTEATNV
# MST3 = MST3 (Homo sapiens, UniProt Q9Y6E0); assay: KINOMEscan: MST3; type: binding; settings: 1000 nM, read-out: Percent Control
# MLK3 = MLK3 (Homo sapiens, UniProt Q16584); assay: KINOMEscan: MLK3; type: binding; settings: 1000 nM, read-out: Percent Control
# [4] = molecular target: CDK9 in complex with Cyclin T2 (Homo sapiens, UniProt P50750); assay: NanoBRET target engagement assay (HEK293); type: cell-based
# Chain of CDK9 in complex with Cyclin T2 (P50750 whole entry): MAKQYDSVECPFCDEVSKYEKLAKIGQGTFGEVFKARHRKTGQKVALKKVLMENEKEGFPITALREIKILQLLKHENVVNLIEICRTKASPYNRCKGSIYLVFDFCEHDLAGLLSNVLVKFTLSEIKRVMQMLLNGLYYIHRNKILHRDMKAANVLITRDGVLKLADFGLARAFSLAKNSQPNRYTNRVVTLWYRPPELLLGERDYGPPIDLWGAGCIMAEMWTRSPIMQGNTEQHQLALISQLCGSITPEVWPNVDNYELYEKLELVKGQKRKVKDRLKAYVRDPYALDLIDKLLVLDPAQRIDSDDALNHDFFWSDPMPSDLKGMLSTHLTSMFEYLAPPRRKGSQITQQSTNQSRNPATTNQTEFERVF
# Chain of CDK9 in complex with Cyclin T2 (O60583 whole entry partner): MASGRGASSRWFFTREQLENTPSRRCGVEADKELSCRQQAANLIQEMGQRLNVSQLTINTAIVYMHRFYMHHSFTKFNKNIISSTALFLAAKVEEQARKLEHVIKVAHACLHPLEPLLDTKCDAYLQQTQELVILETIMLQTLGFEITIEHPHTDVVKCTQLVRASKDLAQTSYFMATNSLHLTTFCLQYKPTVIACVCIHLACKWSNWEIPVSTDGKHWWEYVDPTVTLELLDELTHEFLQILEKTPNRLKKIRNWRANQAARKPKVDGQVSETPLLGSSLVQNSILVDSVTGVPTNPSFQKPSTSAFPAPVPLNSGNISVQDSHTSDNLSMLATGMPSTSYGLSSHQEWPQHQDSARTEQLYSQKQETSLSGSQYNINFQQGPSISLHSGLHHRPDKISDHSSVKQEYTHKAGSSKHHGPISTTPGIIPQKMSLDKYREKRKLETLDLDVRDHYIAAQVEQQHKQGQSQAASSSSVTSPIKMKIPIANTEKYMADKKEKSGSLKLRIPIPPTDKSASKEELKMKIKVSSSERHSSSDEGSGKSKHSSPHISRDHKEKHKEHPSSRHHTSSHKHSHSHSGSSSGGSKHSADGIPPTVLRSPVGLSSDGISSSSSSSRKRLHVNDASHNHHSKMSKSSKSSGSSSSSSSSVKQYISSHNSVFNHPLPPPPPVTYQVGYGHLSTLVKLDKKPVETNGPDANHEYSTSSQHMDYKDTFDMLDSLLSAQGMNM
# KIT(A829P) = KIT(A829P) (Homo sapiens, UniProt P10721, A829P); assay: KINOMEscan: KIT(A829P); type: binding; settings: 1000 nM, read-out: Percent Control
# CASK = CASK (Homo sapiens, UniProt O14936); assay: KINOMEscan: CASK; type: binding; settings: 1000 nM, read-out: Percent Control
# FGFR1 = FGFR1 (Homo sapiens, UniProt P11362); assay: KINOMEscan: FGFR1; type: binding; settings: 1000 nM, read-out: Percent Control
# Adenosine A1 = Adenosine A1 (Homo sapiens, UniProt P30542); assay: Eurofins Diversity Panel; type: binding; settings: hum, Conc. 10 μM
# STK36 = STK36 (Homo sapiens, UniProt Q9NRP7); assay: KINOMEscan: STK36; type: binding; settings: 100 nM, read-out: Percent Control
# DYRK2 = DYRK2 (Homo sapiens, UniProt Q92630); assay: KINOMEscan: DYRK2; type: binding; settings: 1000 nM, read-out: Percent Control
# EGFR(L858R) = EGFR(L858R) (Homo sapiens, UniProt P00533, L858R); assay: KINOMEscan: EGFR(L858R); type: binding; settings: 1000 nM, read-out: Percent Control
# TIE1 = TIE1 (Homo sapiens, UniProt P35590); assay: KINOMEscan: TIE1; type: binding; settings: 100 nM, read-out: Percent Control
# TXK = TXK (Homo sapiens, UniProt P42681); assay: KINOMEscan: TXK; type: binding; settings: 100 nM, read-out: Percent Control
# MEK5 = MEK5 (Homo sapiens, UniProt Q13163); assay: KINOMEscan: MEK5; type: binding; settings: 1000 nM, read-out: Percent Control
# Sigma σ1 = molecular target: T1, Sigma σ1 (Homo sapiens, UniProt Q99720); assay: Eurofins Diversity Panel; type: binding; settings: hum
# T1 construct: purchased Eurofins
# T1 sequence (Q99720 whole entry): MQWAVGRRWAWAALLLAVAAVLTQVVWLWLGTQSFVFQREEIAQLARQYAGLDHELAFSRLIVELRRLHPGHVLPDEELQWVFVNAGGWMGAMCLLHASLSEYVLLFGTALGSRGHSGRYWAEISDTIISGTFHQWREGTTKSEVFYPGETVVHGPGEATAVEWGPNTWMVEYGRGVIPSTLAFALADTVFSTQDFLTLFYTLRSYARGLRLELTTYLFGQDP
# CDK3 = CDK3 (Homo sapiens, UniProt Q00526); assay: KINOMEscan: CDK3; type: binding; settings: 1000 nM, read-out: Percent Control
smiles,measurement,setting,value
COc1cc(F)ccc1-c1cc(Nc2cc(CS(C)(=N)=O)ccn2)ncc1F (centres unmarked) [VIP152],remaining binding at 1 µM,EGFR(L861Q),100%
same,inhibition at 10 µM,Tachykinin NK1,19%
same,remaining binding at 1 µM,AKT1,99%
same,remaining binding at 1 µM,GRK3,100%
same,remaining binding at 1 µM,CDKL2,18%
same,remaining binding at 1 µM,EPHB6,13%
same,remaining binding at 0.1 µM,TYRO3,100%
same,remaining binding at 1 µM,CSNK1G3,97%
same,remaining binding at 0.1 µM,TRKB,100%
same,inhibition at 10 µM,Neuropeptide Y Y1,-3%
same,Percent Control,"FLT3(ITD,F691L)",78%
same,remaining binding at 0.1 µM,TRPM6,100%
same,remaining binding at 0.1 µM,ROS1,100%
same,remaining binding at 1 µM,DRAK1,71%
same,remaining binding at 1 µM,GAK,82%
same,inhibitory capacity against GSK3α,GSK3α,Inhibits
same,remaining binding at 0.1 µM,[1],100%
same,remaining binding at 1 µM,IGF1R,100%
same,remaining binding at 1 µM,LYN,90%
same,remaining binding at 1 µM,MEK4,89%
same,remaining binding at 1 µM,DYRK1B,20%
same,remaining binding at 1 µM,MET(M1250T),27%
same,inhibition at 10 µM,Prostanoid EP4,24%
same,apoptosis and stromal protection,[2],induce significant apoptosis after 24 h and overcome stromal protection
same,inhibition at 10 µM,[3],-3%
same,inhibition at 10 µM,Neuropeptide Y Y2,3%
same,remaining binding at 1 µM,MST3,94%
same,remaining binding at 1 µM,MLK3,87%
same,potency versus the other inhibitors,[4],higher potency
same,remaining binding at 1 µM,KIT(A829P),100%
same,remaining binding at 1 µM,CASK,95%
same,remaining binding at 1 µM,FGFR1,83%
same,inhibition at 10 µM,Adenosine A1,4%
same,remaining binding at 0.1 µM,STK36,100%
same,remaining binding at 1 µM,DYRK2,62%
same,remaining binding at 1 µM,EGFR(L858R),76%
same,remaining binding at 0.1 µM,TIE1,100%
same,remaining binding at 0.1 µM,TXK,100%
same,remaining binding at 1 µM,MEK5,52%
same,IC50,Sigma σ1,1780 nM
same,Ki,Sigma σ1,750 nM
same,nH,Sigma σ1,0.75
same,inhibition at 10 µM,Sigma σ1; Conc. 10 μM,71%
same,remaining binding at 1 µM,CDK3,37%
